From patent US20090118332A1, “Therapeutic Agents - 551” (AstraZeneca AB, priority 2006, published 2009) come the findings set out here.

The target in one experiment is T1, human Fatty Acid Synthase (Homo sapiens, UniProt P49327).
T1 construct: made in house
T1 sequence (P49327 whole entry): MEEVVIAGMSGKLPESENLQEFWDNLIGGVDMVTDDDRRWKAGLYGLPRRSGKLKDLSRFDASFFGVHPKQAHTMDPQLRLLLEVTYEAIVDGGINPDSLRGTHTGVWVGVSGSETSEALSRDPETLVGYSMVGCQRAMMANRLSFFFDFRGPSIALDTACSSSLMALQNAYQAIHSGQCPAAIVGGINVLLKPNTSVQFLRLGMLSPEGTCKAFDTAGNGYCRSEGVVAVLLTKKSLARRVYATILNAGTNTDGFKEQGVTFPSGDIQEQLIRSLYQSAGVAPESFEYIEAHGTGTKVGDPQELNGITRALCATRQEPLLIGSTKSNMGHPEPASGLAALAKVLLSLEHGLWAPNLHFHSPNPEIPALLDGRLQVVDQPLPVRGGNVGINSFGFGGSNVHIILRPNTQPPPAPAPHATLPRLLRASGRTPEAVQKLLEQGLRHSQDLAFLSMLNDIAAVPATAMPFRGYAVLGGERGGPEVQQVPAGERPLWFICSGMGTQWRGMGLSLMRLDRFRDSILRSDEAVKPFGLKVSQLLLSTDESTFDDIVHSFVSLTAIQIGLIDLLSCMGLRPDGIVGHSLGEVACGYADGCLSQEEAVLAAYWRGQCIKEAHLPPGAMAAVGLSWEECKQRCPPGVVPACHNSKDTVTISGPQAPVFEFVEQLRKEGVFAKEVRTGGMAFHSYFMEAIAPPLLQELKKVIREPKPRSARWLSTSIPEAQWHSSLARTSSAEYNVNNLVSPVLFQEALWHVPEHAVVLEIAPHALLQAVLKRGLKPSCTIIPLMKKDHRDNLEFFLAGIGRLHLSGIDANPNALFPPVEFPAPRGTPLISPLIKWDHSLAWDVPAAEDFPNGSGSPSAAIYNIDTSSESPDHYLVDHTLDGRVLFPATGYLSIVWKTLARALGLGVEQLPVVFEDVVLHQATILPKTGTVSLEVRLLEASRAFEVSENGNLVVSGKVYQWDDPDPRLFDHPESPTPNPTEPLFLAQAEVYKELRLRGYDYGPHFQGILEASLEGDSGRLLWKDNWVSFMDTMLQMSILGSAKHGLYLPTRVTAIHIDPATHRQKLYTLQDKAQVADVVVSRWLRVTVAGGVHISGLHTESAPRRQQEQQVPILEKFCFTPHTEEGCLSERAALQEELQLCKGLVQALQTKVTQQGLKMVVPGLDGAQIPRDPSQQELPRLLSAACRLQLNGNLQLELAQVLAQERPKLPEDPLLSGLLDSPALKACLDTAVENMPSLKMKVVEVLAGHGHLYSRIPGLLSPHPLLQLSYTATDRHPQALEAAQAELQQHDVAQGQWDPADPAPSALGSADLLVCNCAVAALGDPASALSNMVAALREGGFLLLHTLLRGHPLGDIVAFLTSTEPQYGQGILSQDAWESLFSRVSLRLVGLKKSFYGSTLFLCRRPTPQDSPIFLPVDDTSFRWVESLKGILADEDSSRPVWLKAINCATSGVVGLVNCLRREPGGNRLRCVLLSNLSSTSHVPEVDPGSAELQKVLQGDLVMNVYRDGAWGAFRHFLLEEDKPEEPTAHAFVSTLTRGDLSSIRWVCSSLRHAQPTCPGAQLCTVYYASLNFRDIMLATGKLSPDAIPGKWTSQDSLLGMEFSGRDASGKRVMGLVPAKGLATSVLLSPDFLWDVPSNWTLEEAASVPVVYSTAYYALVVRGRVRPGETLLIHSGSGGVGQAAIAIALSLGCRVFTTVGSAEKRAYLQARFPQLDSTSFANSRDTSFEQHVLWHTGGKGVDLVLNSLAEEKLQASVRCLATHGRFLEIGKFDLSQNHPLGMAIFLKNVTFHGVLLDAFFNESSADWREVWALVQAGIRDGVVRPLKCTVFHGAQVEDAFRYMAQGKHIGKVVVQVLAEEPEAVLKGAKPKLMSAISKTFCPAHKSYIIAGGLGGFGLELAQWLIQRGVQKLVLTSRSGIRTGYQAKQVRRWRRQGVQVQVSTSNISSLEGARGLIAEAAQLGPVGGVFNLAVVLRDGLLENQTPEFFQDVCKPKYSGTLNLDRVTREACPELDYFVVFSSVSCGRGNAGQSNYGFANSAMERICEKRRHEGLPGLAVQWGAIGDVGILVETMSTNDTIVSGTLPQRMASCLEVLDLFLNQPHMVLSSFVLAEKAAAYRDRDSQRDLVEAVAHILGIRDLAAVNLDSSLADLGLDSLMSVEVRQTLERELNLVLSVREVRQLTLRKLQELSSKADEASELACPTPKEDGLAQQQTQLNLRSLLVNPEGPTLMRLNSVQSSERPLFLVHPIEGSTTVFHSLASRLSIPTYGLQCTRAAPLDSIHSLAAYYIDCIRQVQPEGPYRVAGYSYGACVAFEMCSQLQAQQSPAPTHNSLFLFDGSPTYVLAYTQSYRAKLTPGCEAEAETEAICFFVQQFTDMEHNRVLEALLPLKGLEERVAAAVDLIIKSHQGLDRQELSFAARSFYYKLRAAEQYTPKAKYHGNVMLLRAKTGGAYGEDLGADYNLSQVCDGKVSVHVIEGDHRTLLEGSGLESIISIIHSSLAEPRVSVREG
As to the kind of experiment: Human FAS enzyme assay (decrease in NADPH fluorescence). The format is biochemical. To be noted: % inhibition at a concentration of 100 μmolar. The essentials:
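In-house human FAS was preincubated with compound and NADPH for 15 min at room temperature in 0.1 M Tris pH 7.5 with EDTA, glutathione and BSA. Malonyl CoA and acetyl CoA (500 μM and 150 μM in the added mix) were then added for 60 min. IC50 came from time-zero-subtracted NADPH fluorescence (340/460 nm).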
In general, inhibition refers to the relative decrease from the control value, in per cent. On to `Cc1ccc(C(=O)N2CCC(c3ccc(C#N)cc3)CC2)cc1NC(=O)NCC1CCN(C)C1` (stereo not drawn) [Example 268, 1-[5-[4-(4-cyanophenyl)piperidine-1-carbonyl]-2-methyl-phenyl]-3-[(1-methylpyrrolidin-3-yl)methyl]urea], for which the inhibition at 100 µM was found to be 90.1%.

Take `COc1cccc(CCNC(=O)Nc2cc(C(=O)N3CCC(c4ccc(C#N)cc4)CC3)ccc2C)c1` [Example 65, 1-[5-[4-(4-cyanophenyl)piperidine-1-carbonyl]-2-methyl-phenyl]-3-[2-(3-methoxyphenyl)ethyl]urea]: the inhibition at 100 µM was 99.8%.

On to `CCCNC(=O)Nc1cc(C(=O)N2CCC(c3ccc(C#N)cc3)CC2)ccc1C` [Example 227, 3-[5-[4-(4-cyanophenyl)piperidine-1-carbonyl]-2-methyl-phenyl]-1-propyl-urea], for which the inhibition at 100 µM stood at 90.1%.

`Cc1ccc(C(=O)N2CCC(c3ccc(C#N)cc3)CC2)cc1NC(=O)NCCCC(=O)OC(C)(C)C` [Example 51, tert-butyl 4-[[5-[4-(4-cyanophenyl)piperidine-1-carbonyl]-2-methyl-phenyl]carbamoylamino]butanoate]: the inhibition at 100 µM turned out to be 101%.

Regarding `Cc1ccc(NC(=O)NCc2ccccc2)cc1C(=O)N1CCC(c2ccc(C#N)cc2)CC1` [Example 7, 3-benzyl-1-[3-[4-(4-cyanophenyl)piperidine-1-carbonyl]-4-methyl-phenyl]urea], the inhibition at 100 µM was 79.1%.

Consider `CSCCCNC(=O)Nc1cc(C(=O)N2CCC(c3ccc(C#N)cc3)CC2)ccc1C` [Example 157, 1-[5-[4-(4-cyanophenyl)piperidine-1-carbonyl]-2-methyl-phenyl]-3-(3-methylsulfanylpropyl)urea], for which the inhibition at 100 µM worked out at 92.7%.

Take `Cc1ccc(C(=O)N2CCC(c3ccc(C#N)cc3)CC2)cc1NC(=O)NC1CCC(O)CC1` (stereo not drawn) [Example 107, 1-[5-[4-(4-cyanophenyl)piperidine-1-carbonyl]-2-methyl-phenyl]-3-(4-hydroxycyclohexyl)urea]: the inhibition at 100 µM was determined as 97.7%.

On to `Cc1ccc(C(=O)N2CCC(c3ccc(C#N)cc3)CC2)cc1NC(=O)NCCCn1cccn1` [Example 244, 1-[5-[4-(4-cyanophenyl)piperidine-1-carbonyl]-2-methyl-phenyl]-3-(3-pyrazol-1-ylpropyl)urea], for which the inhibition at 100 µM was 96.2%.

`Cc1ccc(C(=O)N2CCC(c3ccc(C#N)cc3)CC2)cc1NC(=O)N(CCO)C(C)C` [Example 395, 3-[5-[4-(4-cyanophenyl)piperidine-1-carbonyl]-2-methylphenyl]-1-(2-hydroxyethyl)-1-propan-2-ylurea]: the inhibition at 100 µM is 71.6%.

Take `CCS(=O)(=O)N(C)CCNC(=O)Nc1cc(C(=O)N2CCC(c3ccc(C#N)cc3)CC2)ccc1C` [Example 272, 3-[5-[4-(4-cyanophenyl)piperidine-1-carbonyl]-2-methyl-phenyl]-1-[2-(ethylsulfonyl-methyl-amino)ethyl]urea]: the inhibition at 100 µM is 93.9%.

As for `Cc1ccc(NC(=O)NCCCS(C)(=O)=O)cc1C(=O)N1CCC(c2ccc(C#N)cc2)CC1` [Example 278, 1-[3-[4-(4-cyanophenyl)piperidine-1-carbonyl]-4-methyl-phenyl]-3-(3-methylsulfonylpropyl)urea], the inhibition at 100 µM was 95.8%.

Consider `CC(C)=CCNC(=O)Nc1cc(C(=O)N2CCC(c3ccc(C#N)cc3)CC2)ccc1C` [Example 96, 1-[5-[4-(4-cyanophenyl)piperidine-1-carbonyl]-2-methyl-phenyl]-3-(3-methylbut-2-enyl)urea], for which the inhibition at 100 µM amounted to 103%.

In the case of `CSCCNC(=O)Nc1cc(C(=O)N2CCC(c3ccc(C#N)cc3)CC2)ccc1C` [Example 156, 1-[5-[4-(4-cyanophenyl)piperidine-1-carbonyl]-2-methyl-phenyl]-3-(2-methylsulfanylethyl)urea], the inhibition at 100 µM stood at 92.2%.

On to `Cc1ccc(C(=O)N2CCC(c3ccc(C#N)cc3)CC2)cc1NC(=O)NC1CCCC1C(=O)O` (stereo not drawn) [Example 388, 2-[[5-[4-(4-cyanophenyl)piperidine-1-carbonyl]-2-methylphenyl]carbamoylamino]-cyclopentane-1-carboxylic acid], for which the inhibition at 100 µM worked out at 83.9%.

In the case of `CSc1ccc(NC(=O)NC(C)C)cc1C(=O)N1CCC(c2ccc(C#N)cc2)CC1` [Example 405, 3-[3-[4-(4-cyanophenyl)piperidine-1-carbonyl]-4-methylsulfanylphenyl]-1-propan-2-ylurea], the inhibition at 100 µM is 66.8%.

As to `COc1ccc(CCNC(=O)Nc2cc(C(=O)N3CCC(c4ccc(C#N)cc4)CC3)ccc2C)cc1` [Example 64, 1-[5-[4-(4-cyanophenyl)piperidine-1-carbonyl]-2-methyl-phenyl]-3-[2-(4-methoxyphenyl)ethyl]urea], the inhibition at 100 µM is 94%.

On to `COc1ccc(C2CCN(C(=O)c3ccc(C)c(NC(=O)NC(C)C)c3)CC2)cc1` [Example 328, 1-[5-[4-(4-methoxyphenyl)piperidine-1-carbonyl]-2-methyl-phenyl]-3-propan-2-yl-urea], for which the inhibition at 100 µM worked out at 86.7%.

Regarding `Cc1ccc(C(=O)N2CCC(c3ccc(C#N)cc3)CC2)cc1NC(=O)NCc1cnccn1` [Example 293, 1-[5-[4-(4-cyanophenyl)piperidine-1-carbonyl]-2-methyl-phenyl]-3-(pyrazin-2-ylmethyl)urea], the inhibition at 100 µM was found to be 92.5%.

For the molecule `CCCN(C(=O)Nc1cc(C(=O)N2CCC(c3ccc(C#N)cc3)CC2)ccc1C)C1CCS(=O)(=O)C1` (stereo not drawn) [Example 397, 3-[5-[4-(4-cyanophenyl)piperidine-1-carbonyl]-2-methylphenyl]-1-(1,1-dioxothiolan-3-yl)-1-propylurea], the inhibition at 100 µM was found to be 63.7%.

For the molecule `Cc1cccc(CNC(=O)Nc2cc(C(=O)N3CCC(c4ccc(C#N)cc4)CC3)ccc2C)n1` [Example 249, 1-[5-[4-(4-cyanophenyl)piperidine-1-carbonyl]-2-methyl-phenyl]-3-[(6-methylpyridin-2-yl)methyl]urea], the inhibition at 100 µM stood at 84.2%.

Turning to `CCCN1CCC(NC(=O)Nc2cc(C(=O)N3CCC(c4ccc(C#N)cc4)CC3)ccc2C)CC1` [Example 79, 3-[5-[4-(4-cyanophenyl)piperidine-1-carbonyl]-2-methyl-phenyl]-1-(1-propyl-4-piperidyl)urea], the inhibition at 100 µM was determined as 95.4%.

Consider `CC(=O)N[C@H]1CC[C@H](NC(=O)Nc2cc(C(=O)N3CCC(c4ccc(C#N)cc4)CC3)ccc2C)C1` [Example 321, N-[(1S,3S)-3-[[5-[4-(4-cyanophenyl)piperidine-1-carbonyl]-2-methyl-phenyl]carbamoylamino]cyclopentyl]acetamide], for which the inhibition at 100 µM came out at 96.7%.

Consider `Cc1ccc(C(=O)N2CCC(c3ccc(C#N)cc3)CC2)cc1NC(=O)NCCNc1ncnc2[nH]cnc12` [Example 95, 1-[5-[4-(4-cyanophenyl)piperidine-1-carbonyl]-2-methyl-phenyl]-3-[2-(9H-purin-6-ylamino)ethyl]urea], for which the inhibition at 100 µM was 94.4%.

As to `CC(=O)NCCCNC(=O)Nc1cc(C(=O)N2CCC(c3ccc(C#N)cc3)CC2)ccc1C` [Example 273, N-[3-[[5-[4-(4-cyanophenyl)piperidine-1-carbonyl]-2-methyl-phenyl]carbamoylamino]propyl]acetamide], the inhibition at 100 µM was 87%.

With `CSc1ccc(C(=O)N2CCC(c3ccc(C#N)cc3)CC2)cc1NC(=O)NC(C)C` [Example 362, 3-[5-[4-(4-cyanophenyl)piperidine-1-carbonyl]-2-methylsulfanylphenyl]-1-propan-2-ylurea], the inhibition at 100 µM was 87.9%.

Take `Cc1ccc(C(=O)N2CCC(c3ccc(C#N)cc3)CC2)cc1NC(=O)N(C)C1CCN(C)CC1` [Example 393, 3-[5-[4-(4-cyanophenyl)piperidine-1-carbonyl]-2-methylphenyl]-1-methyl-1-(1-methylpiperidin-4-yl)urea]: the inhibition at 100 µM was 65.8%.

With `Cc1ccc(C(=O)N2CCC(c3ccc(C#N)cc3)CC2)cc1NC(=O)NC(C(=O)O)C(C)C` (stereo not drawn) [Example 371, 2-[[5-[4-(4-cyanophenyl)piperidine-1-carbonyl]-2-methylphenyl]carbamoylamino]-3-methylbutanoic acid], the inhibition at 100 µM stood at 79%.

Take `Cc1ccc(C(=O)N2CCC(c3ccc(C#N)cc3)CC2)cc1NC(=O)NCCc1ccccn1` [Example 60, 1-[5-[4-(4-cyanophenyl)piperidine-1-carbonyl]-2-methyl-phenyl]-3-(2-pyridin-2-ylethyl)urea]: the inhibition at 100 µM was 95.3%.

For `COCCNC(=O)Nc1ccc(C)c(C(=O)N2CCC(c3ccc(C#N)cc3)CC2)c1` [Example 417, 1-[3-[4-(4-cyanophenyl)piperidine-1-carbonyl]-4-methylphenyl]-3-(2-methoxyethyl)urea], the inhibition at 100 µM came out at 85.1%.

Take `Cc1ccc(C(=O)N2CCC(c3ccc(C#N)cc3)CC2)cc1NC(=O)NCC(C)(C)NS(C)(=O)=O` [Example 202, 1-[5-[4-(4-cyanophenyl)piperidine-1-carbonyl]-2-methyl-phenyl]-3-(2-methanesulfonamido-2-methyl-propyl)urea]: the inhibition at 100 µM turned out to be 97.3%.

As for `Cc1ccc(C(=O)N2CCC(c3ccc(C#N)cc3)CC2)cc1NC(=O)NCCNC(=O)CO` [Example 114, N-[2-[[5-[4-(4-cyanophenyl)piperidine-1-carbonyl]-2-methyl-phenyl]carbamoylamino]ethyl]-2-hydroxy-acetamide], the inhibition at 100 µM was 89.4%.

Staying with this experiment, now noted: FAS enzyme assay, IC50 from fitted sigmoid curves.
On to `CS(=O)(=O)c1ccc(C(=O)N2CCC(c3ccc(C#N)cc3)CC2)cc1NC(=O)NCc1ccccc1` [3-benzyl-1-[5-[4-(4-cyanophenyl)piperidine-1-carbonyl]-2-methylsulfonylphenyl]urea], for which the “IC50, inhibition of human Fatty Acid Synthase” value was “do not have IC50s in the range of about 0.001 μM to about 30 μM”.

Turning to `Cc1ccc(C(=O)N2CCC(c3ccc(C#N)cc3)CC2)cc1NC(=O)N(C)C(C)(C)C#N` [3-[5-[4-(4-cyanophenyl)piperidine-1-carbonyl]-2-methylphenyl]-1-(2-cyanopropan-2-yl)-1-methylurea], the “IC50, inhibition of human Fatty Acid Synthase” value was “do not have IC50s in the range of about 0.001 μM to about 30 μM”.
